Literature values, collected in US6461590B2, “Stabilized gas-supersaturated suspensions and methods for their delivery” (Wayne State University, priority 1996, dated 2002).

oxygen solubility: 0.008 cc O2/g/atm.
SMILES: OCC(O)CO [Glycerin]
